Where two headings read alike, the source gives them in different places.
Biological target: human ACC2 (Homo sapiens (Human), UniProt O00763)
Test: ACC2 assay (spectrophotometric 384 well assay, NADH-linked kinetic method)
Type: biochemical
Description: Spectrophotometric 384 Well Assay
Malonyl CoA formation by acetyl CoA carboxylases is stoichometrically linked to the consumption of ATP. ACC2 activity is measured in a NADH-linked kinetic method measuring ADP generated during the ACC reaction using a coupled lactate dehydrogenase/pyruvate kinase reaction.
The protein is then expressed in insect cells using a baculoviral expression system. Protein purification is performed by anion exchange.
All compounds are dissolved in dimethyl sulfoxide (DMSO) to a concentration of 10 mM.
The enzymatic reaction is then started by addition of a mixture of NADH, acetyl Coenzyme A (both 200 μM f.c.) and ATP (500 uM f.c.). The decrease of the optical density (slope S) is then determined at 25° C. at a wavelength of 340 nm over 15 minutes in a spectrophotometric reader.
Each assay microtiter plate contains wells with vehicle instead of compound as controls for the non-inhibited enzyme (100% CTL; ‘HIGH’) and wells without acetyl-CoA as controls for non-specific NADH degradation (0% CTL; ‘LOW’).

[1] = hACC2 construct lacking 128 N-terminal amino acids, coupled lactate dehydrogenase/pyruvate kinase reaction, 340 nm, 25° C.

Chain of human ACC2 (O00763 129-2458): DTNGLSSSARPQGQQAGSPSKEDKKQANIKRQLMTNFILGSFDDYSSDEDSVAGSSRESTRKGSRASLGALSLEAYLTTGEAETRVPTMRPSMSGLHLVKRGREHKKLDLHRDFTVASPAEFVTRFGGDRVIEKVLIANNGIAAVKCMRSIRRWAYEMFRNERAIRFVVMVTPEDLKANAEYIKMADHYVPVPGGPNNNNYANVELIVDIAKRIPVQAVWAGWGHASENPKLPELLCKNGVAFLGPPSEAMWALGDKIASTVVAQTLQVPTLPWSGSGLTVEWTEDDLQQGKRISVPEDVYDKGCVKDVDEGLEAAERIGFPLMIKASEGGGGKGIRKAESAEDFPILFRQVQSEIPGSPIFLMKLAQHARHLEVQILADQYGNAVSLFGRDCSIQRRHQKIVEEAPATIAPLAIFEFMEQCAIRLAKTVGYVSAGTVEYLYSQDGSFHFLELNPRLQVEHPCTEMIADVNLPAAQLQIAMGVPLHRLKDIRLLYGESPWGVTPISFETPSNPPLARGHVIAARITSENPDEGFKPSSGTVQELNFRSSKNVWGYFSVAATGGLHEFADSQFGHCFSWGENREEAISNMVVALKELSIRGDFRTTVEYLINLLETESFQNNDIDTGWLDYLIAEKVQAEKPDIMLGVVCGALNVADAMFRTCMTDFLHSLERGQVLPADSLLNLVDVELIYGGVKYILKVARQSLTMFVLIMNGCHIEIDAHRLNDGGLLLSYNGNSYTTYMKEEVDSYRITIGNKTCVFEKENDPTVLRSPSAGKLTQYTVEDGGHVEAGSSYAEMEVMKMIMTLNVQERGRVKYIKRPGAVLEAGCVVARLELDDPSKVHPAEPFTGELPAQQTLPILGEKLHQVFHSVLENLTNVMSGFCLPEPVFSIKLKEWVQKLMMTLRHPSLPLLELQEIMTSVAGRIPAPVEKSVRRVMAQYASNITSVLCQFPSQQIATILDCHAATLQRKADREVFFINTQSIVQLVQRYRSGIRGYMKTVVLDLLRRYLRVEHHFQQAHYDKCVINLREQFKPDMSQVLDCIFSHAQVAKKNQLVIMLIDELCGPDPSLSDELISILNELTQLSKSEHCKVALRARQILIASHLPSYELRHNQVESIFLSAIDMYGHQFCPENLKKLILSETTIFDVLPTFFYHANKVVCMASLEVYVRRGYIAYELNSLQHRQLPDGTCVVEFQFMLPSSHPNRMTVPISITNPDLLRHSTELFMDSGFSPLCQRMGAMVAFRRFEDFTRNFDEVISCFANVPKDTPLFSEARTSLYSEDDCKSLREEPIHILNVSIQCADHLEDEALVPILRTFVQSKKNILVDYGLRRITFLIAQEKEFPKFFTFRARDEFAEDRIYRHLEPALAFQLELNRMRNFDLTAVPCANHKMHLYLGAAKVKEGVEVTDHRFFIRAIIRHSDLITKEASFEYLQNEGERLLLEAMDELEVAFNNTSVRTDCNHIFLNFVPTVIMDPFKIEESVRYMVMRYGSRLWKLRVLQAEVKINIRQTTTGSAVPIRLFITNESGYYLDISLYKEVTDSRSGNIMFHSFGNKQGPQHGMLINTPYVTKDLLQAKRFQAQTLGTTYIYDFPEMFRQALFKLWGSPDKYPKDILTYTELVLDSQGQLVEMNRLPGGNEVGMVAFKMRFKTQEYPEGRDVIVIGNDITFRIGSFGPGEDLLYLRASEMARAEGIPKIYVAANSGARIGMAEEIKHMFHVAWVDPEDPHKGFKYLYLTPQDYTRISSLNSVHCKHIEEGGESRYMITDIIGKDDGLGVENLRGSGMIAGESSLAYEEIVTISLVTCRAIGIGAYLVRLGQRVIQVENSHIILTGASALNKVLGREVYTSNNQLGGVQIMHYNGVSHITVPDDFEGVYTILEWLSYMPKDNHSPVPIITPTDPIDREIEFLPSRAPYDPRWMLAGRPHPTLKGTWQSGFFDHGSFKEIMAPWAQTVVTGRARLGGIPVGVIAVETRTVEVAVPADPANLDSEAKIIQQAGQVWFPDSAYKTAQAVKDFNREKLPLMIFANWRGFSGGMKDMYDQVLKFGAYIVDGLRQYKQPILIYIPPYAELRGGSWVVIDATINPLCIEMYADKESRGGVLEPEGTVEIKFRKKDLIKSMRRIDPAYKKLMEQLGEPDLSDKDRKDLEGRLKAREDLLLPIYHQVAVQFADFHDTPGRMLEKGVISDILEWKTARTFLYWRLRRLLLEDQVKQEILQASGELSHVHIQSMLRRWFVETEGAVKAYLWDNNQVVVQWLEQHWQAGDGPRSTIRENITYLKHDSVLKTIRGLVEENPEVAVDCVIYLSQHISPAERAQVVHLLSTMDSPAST

SMILES | IC50 [1] [nM] | IC50 [nM]
CC(=O)N[C@@H](C)c1ccc(O[C@@H]2CCN(c3cnc(NC4CCC4)nc3)C2)cc1 [Example 1.1, N—((S)-1-(4-((R)-1-(2-(cyclobutylamino)pyrimidin-5-yl)pyrrolidin-3-yloxy)phenyl)ethyl)acetamide] | 489 | 
CC(=O)N[C@@H](C)c1ccc(OC2CCN(c3cnc(OC4CCC4)nc3)C2)cc1 (stereo partly drawn) [Example 1.2] | 565 | 
CC(=O)N[C@@H](C)c1ccc(OC2CCN(c3cnc(OCC4CC4)nc3)C2)cc1 (stereo partly drawn) [Example 1.3] | 964 | 
CCC(=O)Nc1nc(C)c(C(=O)N[C@@H](C)c2ccc(O[C@@H]3CCN(c4ncc(OCC5CC5(F)F)cn4)C3)cc2)s1 (stereo partly drawn) [Example 1.4] | 101 | 
C[C@H](NC(=O)C1CC1)c1ccc(O[C@@H]2CCN(c3ccnc(N(C)CC(F)F)n3)C2)cc1 [Example 2.1, N—((S)-1-(4-((R)-1-(2-((2,2-difluoroethyl)(methyl)amino)pyrimidin-4-yl)pyrrolidin-3-yloxy)phenyl)ethyl)cyclopropanecarboxamide] |  | 65
C[C@H](NC(=O)C1CC1)c1ccc(OC2CCN(c3ccnc(N4CCOCC4)n3)C2)cc1 (stereo partly drawn) [Example 2.2] | 359 | 
CC(=O)Nc1nc(C)c(C(=O)N[C@@H](C)c2ccc(OC3CCN(c4ccnc(N5CCOCC5)n4)C3)cc2)s1 (stereo partly drawn) [Example 2.3] | 547 | 
Cc1nocc1C(=O)N[C@@H](C)c1ccc(OC2CCN(c3ccnc(N4CCOCC4)n3)C2)cc1 (stereo partly drawn) [Example 2.4] | 208 | 
C[C@H](NC(=O)c1ccns1)c1ccc(OC2CCN(c3ccnc(N4CCOCC4)n3)C2)cc1 (stereo partly drawn) [Example 2.5] | 535 | 
C[C@H](NC(=O)c1cnco1)c1ccc(OC2CCN(c3ccnc(N4CCOCC4)n3)C2)cc1 (stereo partly drawn) [Example 2.6] | 320 | 
C[C@H](NC(=O)c1cn[nH]c1)c1ccc(OC2CCN(c3ccnc(N4CCOCC4)n3)C2)cc1 (stereo partly drawn) [Example 2.7] | 455 | 
CCN(C)c1nccc(N2CCC(Oc3ccc([C@H](C)NC(=O)c4sc(NC(C)=O)nc4C)cc3)C2)n1 (stereo partly drawn) [Example 2.8] | 245 | 
CCN(C)c1nccc(N2CCC(Oc3ccc([C@H](C)NC(=O)c4sc(NC(=O)COC)nc4C)cc3)C2)n1 (stereo partly drawn) [Example 2.9] | 300 | 
CC(=O)Nc1nc(C)c(C(=O)N[C@@H](C)c2ccc(OC3CCN(c4ccnc(N(C)CC(F)F)n4)C3)cc2)s1 (stereo partly drawn) [Example 2.10] | 115 | 
COCC(=O)Nc1nc(C)c(C(=O)N[C@@H](C)c2ccc(OC3CCN(c4ccnc(N(C)CC(F)F)n4)C3)cc2)s1 (stereo partly drawn) [Example 2.11] | 115 | 
Cc1oncc1C(=O)N[C@@H](C)c1ccc(OC2CCN(c3ccnc(N(C)CC(F)F)n3)C2)cc1 (stereo partly drawn) [Example 2.12] | 90 | 
CCC(=O)N[C@@H](C)c1ccc(OC2CCN(c3ccnc(N(C)CC)n3)C2)cc1 (stereo partly drawn) [Example 2.13] | 85 | 
CCN(C)c1nccc(N2CCC(Oc3ccc([C@H](C)NC(=O)C4CC4)cc3)C2)n1 (stereo partly drawn) [Example 2.14] | 63 | 
C[C@H](NC(=O)c1cn[nH]c1)c1ccc(OC2CCN(c3ccnc(N(C)CC(F)F)n3)C2)cc1 (stereo partly drawn) [Example 2.15] | 70 | 
CCC(=O)N[C@@H](C)c1ccc(OC2CCN(c3ccnc(N(C)CC(F)F)n3)C2)cc1 (stereo partly drawn) [Example 2.16] | 45 | 
CCN(C)c1nccc(N2CCC(Oc3ccc([C@H](C)NC(=O)c4cn[nH]c4)cc3)C2)n1 (stereo partly drawn) [Example 2.17] | 118 | 
CCN(C)c1nccc(N2CCC(Oc3ccc([C@H](C)NC(=O)c4cnoc4C)cc3)C2)n1 (stereo partly drawn) [Example 2.18] | 130 | 
CC(=O)Nc1nc(C)c(C(=O)N[C@@H](C)c2ccc(OC3CCN(c4ncnc(OCC5CC5)c4F)C3)cc2)s1 (stereo partly drawn) [Example 2.19] | 39 | 
C[C@H](NC(=O)c1cn[nH]c1)c1ccc(OC2CCN(c3ncnc(OCC4CC4)c3F)C2)cc1 (stereo partly drawn) [Example 2.20] | 53 | 
C[C@H](NC(=O)c1cnco1)c1ccc(OC2CCN(c3ncnc(OCC4CC4)c3F)C2)cc1 (stereo partly drawn) [Example 2.21] | 87 | 
Cc1oncc1C(=O)N[C@@H](C)c1ccc(OC2CCN(c3ncnc(OCC4CC4)c3F)C2)cc1 (stereo partly drawn) [Example 2.22] | 48 | 
CCC(=O)N[C@@H](C)c1ccc(OC2CCN(c3ncnc(OCC4CC4)c3F)C2)cc1 (stereo partly drawn) [Example 2.23] | 144 | 

— patent publication US8962641B2, “Pyrimidine-substituted pyrrolidine derivatives, pharmaceutical compositions and uses thereof” (Boehringer Ingelheim International GmbH, priority 2013, dated 2015)
